Laboratory results as given in US20260116868A1 (Arcus Biosciences, Inc., priority 2023, published 2026).

Target: T1, Cbl-b (Homo sapiens, UniProt Q13191)
T1 construct: biotin (biotinylated protein)
Test: Cbl-b probe displacement HTRF binding assay
Settings: 0.4 nM Cbl-b, 150 nM BODIPY probe
Description: The affinity with which compounds of the present disclosure bind to Cbl-b was assessed using probe displacement homologous time resolved fluorescence (HTRF) assays. The assays used a BODIPY™ conjugated probe (Example 54 from WO 2020264398) and biotinylated Cbl-b. The assays were performed in assay buffer consisting of 20 mM Hepes, 150 mM NaCl, 0.01% Triton X-100, 0.5 mM TCEP, 0.01% BSA. On the day of the assay, a 20 point, 1:2 master serial dilution of each compound was prepared in DMSO to span a final concentration range of […] to 0 nM. Two hundred nanoliters of diluted compound was added to each well of a 384-well plate. Fifteen microliters of biotinylated- Cbl-b resuspended in assay buffer were added to each well and the plate incubated for 60 minutes at room temperature prior to addition of 5 μL of BODIPY™ probe in assay buffer. Final assay conditions included 0.4 nM of Cbl-b and 150 nM of BODIPY™ probe. After a further 15 minutes of incubation at room temperature, 5 μl of Streptavidin-Terbium cryptate reagent at 5-fold final concentration was added to each well of the 384-well plate. Binding of a probe to Cbl-b results in an increase of HTRF signal. HTRF signal was measured by Envision plate reader, while competition of a compound of the present disclosure with probe results in a decrease of signal. Percentage maximum activity in each test well was calculated based on DMSO (maximum activity, 0% displacement) and no protein control wells (baseline activity, 100% displacement). Binding affinity was determined from a dose response curve fitted using a standard four parameter fit equation. See Table 7 for data for compounds (Cbl-b Binding (IC50)).

T1 sequence (Q13191 whole entry, species assumed): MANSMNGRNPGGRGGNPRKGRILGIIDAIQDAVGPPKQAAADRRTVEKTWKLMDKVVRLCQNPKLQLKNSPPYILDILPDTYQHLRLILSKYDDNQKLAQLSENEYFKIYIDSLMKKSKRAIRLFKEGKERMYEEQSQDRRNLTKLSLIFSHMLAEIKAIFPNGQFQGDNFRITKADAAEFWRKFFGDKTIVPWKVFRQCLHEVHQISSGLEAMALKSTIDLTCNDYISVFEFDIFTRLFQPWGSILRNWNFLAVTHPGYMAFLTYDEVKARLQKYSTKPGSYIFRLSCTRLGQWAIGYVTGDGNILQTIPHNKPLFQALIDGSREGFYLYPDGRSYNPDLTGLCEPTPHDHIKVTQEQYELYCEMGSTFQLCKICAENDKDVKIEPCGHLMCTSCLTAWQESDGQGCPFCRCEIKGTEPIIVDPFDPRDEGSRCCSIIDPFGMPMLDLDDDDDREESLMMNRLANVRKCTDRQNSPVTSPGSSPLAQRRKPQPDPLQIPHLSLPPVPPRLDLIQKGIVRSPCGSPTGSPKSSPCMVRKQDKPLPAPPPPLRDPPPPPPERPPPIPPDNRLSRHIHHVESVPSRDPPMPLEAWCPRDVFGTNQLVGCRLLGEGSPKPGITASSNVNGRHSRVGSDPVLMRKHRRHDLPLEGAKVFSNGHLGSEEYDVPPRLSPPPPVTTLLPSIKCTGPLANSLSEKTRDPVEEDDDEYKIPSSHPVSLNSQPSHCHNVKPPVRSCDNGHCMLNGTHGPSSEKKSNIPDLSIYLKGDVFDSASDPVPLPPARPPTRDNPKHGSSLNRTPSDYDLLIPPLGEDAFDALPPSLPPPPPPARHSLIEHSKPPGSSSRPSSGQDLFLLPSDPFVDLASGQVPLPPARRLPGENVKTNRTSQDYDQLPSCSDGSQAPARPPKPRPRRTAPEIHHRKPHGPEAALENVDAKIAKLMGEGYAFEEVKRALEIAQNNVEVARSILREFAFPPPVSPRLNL

IC50, < 100 nM:
CCOc1cc(-c2ccc(C#N)cc2C(=O)N2CC(F)(F)C2)cc(NC(=O)c2cc(CNC[C@@H]3CCCO3)cn(C3CC3)c2=O)n1 [Example 212]
CC(C)Oc1cc(-c2ccc(OC(F)F)cc2C(=O)N2CC(F)C2)cc(NC(=O)c2cc(CN[C@@H](C)C3CCC3)cn(C)c2=O)n1 [Example 250]
COCCNCc1cc(C(=O)Nc2cc(-c3ccc(Cl)cc3C(=O)N3CC(C#N)C3)cc(C3CC3)n2)c(=O)n(C2CC2)c1 [Example 303]
Cc1ccc(-c2cc(NC(=O)c3cc(CN[C@@H](C)C4CCC4)cn(C4CC4)c3=O)nc(OCC(F)F)c2)c(C(=O)N2CC(F)(F)C2)c1 [Example 347]
N#Cc1ccc(-c2cc(NC(=O)c3cc(CNC[C@@H]4CCCO4)cn(C4CC4)c3=O)nc(OCF)c2)c(C(=O)N2CC(F)(F)C2)c1 [Example 344]
O=C(Nc1cc(-c2ccc(Cl)cc2C(=O)N2CC(F)(F)C2)cc(C2CC2)n1)c1cc(CNC[C@@H]2CCCO2)cn(C2CC2)c1=O [Example 378]
CC(C)Oc1cc(-c2ccc(C#N)cc2C(=O)N2CC(F)(F)C2)cc(NC(=O)c2cc(CN[C@@H](C)C3CCC3)cn(C3CC3)c2=O)n1 [Example 143, N-(4-{4-cyano-2-[(3,3-difluoro-1-azetidinyl)carbonyl]phenyl}-6-isopropoxy-2-pyridyl)-5-{[(S)-1-cyclobutylethylamino]methyl}-1-cyclopropyl-2-oxo-1,2-dihydronicotinamide]
CO[C@@H](C)[C@H](C)NCc1cc(C(=O)Nc2cc(-c3c(F)cc(C#N)cc3C(=O)N3CC(F)(F)C3)cc(OC(C)C)n2)c(=O)n(C2CC2)c1 [Example 222]
C[C@H](NCc1cc(C(=O)Nc2cc(-c3ccc(C#N)cc3C(=O)N3CC(F)(F)C3)cc(C3CC3)n2)c(=O)n(C2CC2)c1)C1CCCC1 [Example 358]
CCn1cc(CNC[C@@H]2CCCO2)cc(C(=O)Nc2cc(-c3ccc(C#N)cc3C(=O)N3CC(F)(F)C3)cc(C3CC3)n2)c1=O [Example 186]
CC(C)Oc1cc(-c2c(F)cc(C#N)cc2C(=O)N2CC(F)(F)C2)cc(NC(=O)c2cc(CN[C@@H](C)C3CCC3)cn(C3CC3)c2=O)n1 [Example 126]
CC(C)Oc1cc(-c2ccc(OC(F)F)cc2C(=O)N2CC(F)(F)C2)cc(NC(=O)c2cc(CN[C@@H](C)C(C)C)cn(C)c2=O)n1 [Example 114]
C[C@H](NCc1cc(C(=O)Nc2cc(-c3c(F)cc(C#N)cc3C(=O)N3CC(F)(F)C3)cc(C3CC3)n2)c(=O)n(C2CC2)c1)C1CCC1 [Example 218]
CC(C)CNCc1cc(C(=O)Nc2cc(-c3ccc(Cl)cc3C(=O)N3CC(F)(F)C3)cc(C3CC3)n2)c(=O)n(C2CC2)c1 [Example 134, N-(4-{4-chloro-2-[(3,3-difluoro-1-azetidinyl)carbonyl]phenyl}-6-cyclopropyl-2-pyridyl)-1-cyclopropyl-5-[(isobutylamino)methyl]-2-oxo-1,2-dihydronicotinamide]
CO[C@@H](C)CNCc1cc(C(=O)Nc2cc(-c3ccc(C#N)cc3C(=O)N3CC(F)(F)C3)cc(OCC(F)F)n2)c(=O)n(C2CC2)c1 [Example 131, N-(4-{4-cyano-2-[(3,3-difluoro-1-azetidinyl)carbonyl]phenyl}-6-(2,2-difluoroethoxy)-2-pyridyl)-1-cyclopropyl-5-{[(S)-2-methoxypropylamino]methyl}-2-oxo-1,2-dihydronicotinamide]
CO[C@@H](C)CNCc1cc(C(=O)Nc2cc(-c3ccc(C#N)cc3C(=O)N3CC(F)C3)cc(OC(C)C)n2)c(=O)n(C)c1 [Example 265]
CC(N[C@@H](C)C1CCC1)c1cc(C(=O)Nc2cc(-c3ccc(C#N)cc3C(=O)N3CC(F)(F)C3)cc(C3CC3)n2)c(=O)n(C2CC2)c1 (some centres unmarked) [Example 329]
CC(C)CNCc1cc(C(=O)Nc2cc(-c3ccc(OC(F)F)cc3C(=O)N3CC(F)(F)C3)cc(C3CC3)n2)c(=O)n(C2CC2)c1 [Example 322]
C[C@H](NCc1cc(C(=O)Nc2cc(-c3ccc(C#N)cc3C(=O)N3CC(F)(F)C3)cc(C3CC3)n2)c(=O)n(C2CC2)c1)C1CCC1 [Example 351]
CC(C)[C@H](C)N[C@@H](C)c1cc(C(=O)Nc2cc(-c3ccc(C#N)cc3C(=O)N3CC(F)(F)C3)cc(C3CC3)n2)c(=O)n(C2CC2)c1 [Example 336]
CC(C)Oc1cc(-c2c(F)cc(C#N)cc2C(=O)N2CC(F)(F)C2)cc(NC(=O)c2cc(CN[C@@H](C)C3CC3)cn(C)c2=O)n1 [Example 233]
COC[C@H](C)NCc1cc(C(=O)Nc2cc(-c3ccc(C#N)cc3C(=O)N3CC(F)(F)C3)cc(C3CC3)n2)c(=O)n(C)c1 [Example 171]
CC(C)CNCc1cc(C(=O)Nc2cc(-c3ccc(C#N)cc3C(=O)N3CC(F)(F)C3)cc(OCC(F)F)n2)c(=O)n(C2CC2)c1 [Example 129, N-(4-{4-cyano-2-[(3,3-difluoro-1-azetidinyl)carbonyl]phenyl}-6-(2,2-difluoroethoxy)-2-pyridyl)-1-cyclopropyl-5-[(isobutylamino)methyl]-2-oxo-1,2-dihydronicotinamide]
CCOc1cc(-c2ccc(Cl)cc2C(=O)N2CC(F)(F)C2)cc(NC(=O)c2cc(CNC[C@H](C)OC)cn(C3CC3)c2=O)n1 [Example 123, N-(4-{4-chloro-2-[(3,3-difluoro-1-azetidinyl)carbonyl]phenyl}-6-ethoxy-2-pyridyl)-1-cyclopropyl-5-{[(S)-2-methoxypropylamino]methyl}-2-oxo-1,2-dihydronicotinamide]
O=C(Nc1cc(-c2ccc(OC(F)F)cc2C(=O)N2CC(F)(F)C2)cc(OCC(F)F)n1)c1cc(CNC[C@@H]2COCCO2)cn(C2CC2)c1=O [Example 165]
COC[C@H](C)NC(C)c1cc(C(=O)Nc2cc(-c3ccc(C#N)cc3C(=O)N3CC(F)(F)C3)cc(C3CC3)n2)c(=O)n(C2CC2)c1 (some centres unmarked) [Example 335]
C[C@H](NCc1cc(C(=O)Nc2cc(-c3ccc(OC(F)F)cc3C(=O)N3CC(F)C3)cc(OC3CC3)n2)c(=O)n(C)c1)C1CCC1 [Example 262]
CCOc1cc(-c2ccc(Cl)cc2C(=O)N2CC(F)(F)C2)cc(NC(=O)c2cc(CN[C@@H](C)C3CCC3)cn(C3CC3)c2=O)n1 [Example 122, N-(4-{4-chloro-2-[(3,3-difluoro-1-azetidinyl)carbonyl]phenyl}-6-ethoxy-2-pyridyl)-5-{[(S)-1-cyclobutylethylamino]methyl}-1-cyclopropyl-2-oxo-1,2-dihydronicotinamide]
CC(C)Oc1cc(-c2ccc(C#N)cc2C(=O)N2CC(F)(F)C2)cc(NC(=O)c2cc(CNC[C@@H]3CCCCO3)cn(C)c2=O)n1 [Example 407]
COc1ccc(-c2cc(NC(=O)c3cc(CN[C@@H](C)C4CC4)cn(C)c3=O)nc(C3CC3)c2)c(C(=O)N2CC(F)C2)c1 [Example 312]
CC(C)Oc1cc(-c2ccc(C#N)cc2C(=O)N2CC(F)(F)C2)cc(NC(=O)c2cc(CNC[C@@H]3CCCO3)cn(C3CC3)c2=O)n1 [Example 96, N-(4-{4-cyano-2-[(3,3-difluoro-1-azetidinyl)carbonyl]phenyl}-6-isopropoxy-2-pyridyl)-5-[({[(S)-tetrahydro-2-furyl]methyl}amino)methyl]-1-cyclopropyl-2-oxo-1,2-dihydronicotinamide]
CC(C)Oc1cc(-c2ccc(OC(F)F)cc2C(=O)N2CC(F)(F)C2)cc(NC(=O)c2cc(CNC[C@@H]3CCCO3)cn(C3CC3)c2=O)n1 [Example 209]
CO[C@@H](C)[C@H](C)NCc1cc(C(=O)Nc2cc(-c3ccc(C#N)cc3C(=O)N3CC(F)(F)C3)cc(OC(C)C)n2)c(=O)n(C2CC2)c1 [Example 142]
COc1ccc(-c2cc(NC(=O)c3cc(CNC[C@@H]4CCCO4)cn(C4CC4)c3=O)nc(OC(C)C)c2)c(C(=O)N2CC(F)C2)c1 [Example 283]
CCNc1cc(-c2ccc(Cl)cc2C(=O)N2CC(F)(F)C2)cc(NC(=O)c2cc(CNCC(C)C)cn(C)c2=O)n1 [Example 184]
CCOc1cc(-c2c(F)cc(Cl)cc2C(=O)N2CC(F)(F)C2)cc(NC(=O)c2cc(CNC[C@@H]3CCCO3)cn(C3CC3)c2=O)n1 [Example 210]
CCOc1cc(-c2ccc(OC(F)F)cc2C(=O)N2CC(F)C2)cc(NC(=O)c2cc(CN[C@@H](C)C3CCC3)cn(C3CC3)c2=O)n1 [Example 247]
CCOc1cc(-c2ccc(Cl)cc2C(=O)N2CC(F)(F)C2)cc(NC(=O)c2cc(CN[C@@H](C)C3CC3)cn(C3CC3)c2=O)n1 [Example 124]
